According to paper PMC6687188, “Novel lactate dehydrogenase inhibitors with in vivo efficacy against Cryptosporidium parvum” (PLoS Pathogens, 2019):
Like-named read-outs stand apart in the source and are kept apart here.

What was measured:
[1] = target: recombinant CpLDH protein (Cryptosporidium parvum, UniProt Q9GT92, F198L/K295E/R251K)
HCT-8 cells = assay: Compound cytotoxicity assay (WST-1 cell proliferation reagent)
Method: A colorimetric assay using the cell proliferation reagent WST-1 (Roche, USA) for the quantification of cell viability was performed. […] When the cells were confluent, the old medium was replaced with fresh medium with or without varying concentrations of chemical compound. After 24 h of culture, 10 μl of the cell proliferation reagent WST-1, (for quantification of cell viability) was added to each well, mixed and the plates incubated for 1 h at 37 C with 5% CO2 in the dark. […] Three independent assays were performed and the dose–response curves of the means of triplicate assays were generated using GraphPad PRISM software to derive the half maximal inhibitory concentration (IC50) of compounds in HCT-8 cells.

Row | SMILES | MEAN CpLDH INHIBITION (%) [1] | IC50 (HCT-8 cells) | other results
1 | CC1=C(CCC(=O)O)c2cc3nc(cc4[nH]c(cc4C)cc4[nH]c(cc1n2)cc4C)C(C)=C3CCC(=O)O [NSC18298] | 53.86% | 81.9 µM | –
2 | O=C(O)[C@@H]1[C@H](C(=O)O)[C@]2(Cl)C(Cl)=C(Cl)[C@@]1(Cl)C2(Cl)Cl [NSC22225] | – | 96.8 µM | effect on catalytic activity of recombinant CpLDH (in words) [1]: significantly (P < 0.05) inhibited
3 | O=c1oc2cc(O)ccc2c2oc3cc(O)ccc3c12 [NSC22842] | 3.48% | 83.5 µM | –
4 | CC(=O)Nc1ccc(-c2nc3ccccc3s2)cc1 [NSC33006] | 13.74% | 87.3 µM | –
5 | O=S(=O)([O-])c1cc(N=Nc2cc(S(=O)(=O)[O-])c3ccccc3c2O)ccc1/C=C/c1ccc(N=Nc2cc(S(=O)(=O)[O-])c3ccccc3c2O)cc1S(=O)(=O)[O-].[Na+].[Na+].[Na+].[Na+] [NSC34931] | 43.74% | 71.1 µM | –
6 | O=S(=O)(O)c1cc(N=[N+]([O-])c2cc(S(=O)(=O)O)c3ccccc3c2)cc2ccccc12 [NSC37031] | – | 333 µM | effect on catalytic activity of recombinant CpLDH (in words) [1]: significantly (P < 0.05) inhibited
7 | [Cl][Cd][Cl] [NSC51148] | 64.58% | 39.6 µM | –
8 | N#CCCN(CCC#N)Cc1cc(O)c(CN(CCC#N)CCC#N)cc1O [NSC70925] | 68.17% | 142 µM | –
9 | Cc1cc2c(c3oc(C4(C)OC4C4OC4C)cc(=O)c13)C(=O)c1c(O)c(C3CC(C)(N(C)C)C(O)C(C)O3)cc(C3CC(N(C)C)C(O)C(C)O3)c1C2=O (stereo not drawn) [NSC70929] | 13.50% | 181 µM | –
10 | Cc1ccc2c(sc(-c3ccc4c(c3)sc(-c3ccc(N(C)C)cc3)[n+]4C)[n+]2C)c1S(=O)(=O)[O-].[Cl-] [NSC71948] | 60.47% | 106 µM | –
11 | O=[N+]([O-])c1ccc2c(N=Nc3c(O)ccc4ccccc34)c(O)cc(S(=O)(=O)[O-])c2c1.[Na+] [NSC73413] | 54.98% | 220 µM | –
12 | Cc1cc(N(CCCl)CCCl)ccc1/C=N/NC(=O)Cc1cc(=O)oc2cc(O)ccc12 [NSC79688] | 40.15% | – | IC50 (HCT-8 cells; read-out: CYTOTOXICITY IC50, HCT-8 cells, 24 h): 145 µM
13 | O=C(CC(=O)C(F)(F)F)c1csc2ccccc12 [NSC80396] | -8.51% | 91.9 µM | –
14 | CCOC(C)C(C=NNC(N)=S)=NNC(N)=S (stereo not drawn) [NSC82116] | 10.05% | 118 µM | –
15 | O=[N+]([O-])c1cccc2c(N=Nc3ccc4ccccc4c3O)c(O)cc(S(=O)(=O)O)c12.[Na+] [NSC85561] | 73.45% | 103 µM | –
16 | CCOC(=O)Cc1c(C)c2cc(C(=O)c3ccccc3)c(O)cc2oc1=O [NSC115538] | 0.63% | 158 µM | –
17 | COc1ccc(/C=C/C(=O)Oc2cc(O)cc(O)c2)cc1 [NSC175296] | 0.00% | 156 µM | –
18 | O=C([CH-]C(=O)C(F)(F)F)c1ccccc1.O=C([CH-]C(=O)C(F)(F)F)c1ccccc1.O=C([CH-]C(=O)C(F)(F)F)c1ccccc1.O=C([CH-]C(=O)C(F)(F)F)c1ccccc1.[Eu+3].c1ccncc1 [NSC253995] | 25.71% | 83 µM | –
19 | CC(O)CCC(=O)c1ccoc1 (stereo not drawn) [NSC349438] | 13.12% | 93.9 µM | –
20 | O=Cc1cc([N+](=O)[O-])no1 [NSC626433] | 48.62% | 265 µM | –
21 | O=S(=O)(O)c1cc(N=Nc2cc(S(=O)(=O)O)c3cccnc3c2O)ccc1/C=C/c1ccc(N=Nc2cc(S(=O)(=O)O)c3cccnc3c2O)cc1S(=O)(=O)O [NSC638352] | 43.74% | 116 µM | –
22 | O=C1/C(=C/c2ccccc2)CN(C(=O)/C=C/c2ccccc2)C/C1=C\c1ccccc1 [NSC638634] | 0.30% | 157 µM | –

Row | SMILES | MEAN CpLDH INHIBITION (%) [1] | IC50 (HCT-8 cells) | other results
23 | COC(=O)C1CCC(=O)N1C(c1ccc(OC)cc1)c1cc(OC)c(OC)c(OC)c1 (stereo not drawn) [NSC673622] | -14.54% | – | –
24 | NC(=O)N/N=C1\CC2C3CC4C2C4C13 (stereo not drawn) [NSC673912] | -116.36% | – | –
25 | Cc1cc(-c2nc3ccccc3s2)ccc1N [NSC674495] | -21.24% | – | –
26 | CCCN(CCC)C(=S)Sc1nc(C)nc(N2CCN(c3nc(C)nc(SC(=S)N(CCC)CCC)c3[N+](=O)[O-])CC2)c1[N+](=O)[O-] [NSC675593] | -141.86% | – | –
27 | COc1ccccc1[S+]([O-])Nc1ccccc1 (stereo not drawn) [NSC676561] | -16.89% | – | –
28 | O=C(O)/C=C\C(=O)O.[N-]=[N+]=Nc1ccc2c(c1)Sc1ccccc1N2CCCCN1CCN(Cc2ccc(C(=O)c3ccccc3)cc2)CC1 [NSC676963] | -97.54% | – | –
29 | COc1ccc(NC(=O)CC(=O)N2N=C(C)C(N=Nc3ccc(S(=O)(=O)c4ccc(N=NC5C(=O)N(C(=O)CC(=O)Nc6ccc(OC)cc6)N=C5C)cc4)cc3)C2=O)cc1 (stereo not drawn) [NSC677392] | -119.10% | – | –
30 | COc1ccc(OC)c2nc3c(C(=O)NCCN(C)C)cccc3nc12.Cl [NSC678917] | -41.85% | – | –
31 | CN(C)CCNC(=O)c1cccc2[nH]c(-c3ccncc3)nc12.Cl [NSC678932] | -5.91% | – | –
32 | COC(=O)c1c[nH]c2c1-c1cc(C(=O)OCc3ccccc3)n(S(=O)(=O)c3ccc(C)cc3)c1C(=O)C2=O [NSC679524] | -184.78% | – | –
33 | COC(=O)c1cc(-c2c[nH]cc2C(=O)OCc2ccccc2)cn1S(=O)(=O)c1ccc(C)cc1 [NSC679527] | -27.66% | – | –
34 | CC1=C/C(=N\OCC(=O)O)CC(c2ccc(C(C)C)cc2)C1 (stereo not drawn) [NSC680506] | -8.88% | – | –
35 | Cl.NC1(CCNC(=O)c2ccccc2)CCN(C(=O)c2ccccc2)CC1 [NSC680509] | -41.56% | – | –
36 | Cc1cc(N(C)C)ccc1N=Nc1ccc2ncccc2c1 [NSC680516] | -19.55% | – | –
37 | N#CC(NCc1cccc(CNC(C#N)c2ccccc2)c1)c1ccccc1 (stereo not drawn) [NSC681730] | -12.34% | – | –
38 | CCC(C#N)(c1ccccc1)N(CCc1ccccc1)C(=O)c1ccccc1 (stereo not drawn) [NSC681741] | -7.66% | – | –
39 | N#CC(c1ccccc1)N(CCCCCCN(C(=O)c1ccccc1)C(C#N)c1ccccc1)C(=O)c1ccccc1 (stereo not drawn) [NSC681744] | -15.26% | – | –
40 | COc1ccc(-c2cc(-c3ccccc3)nc3c2CC(=O)Nc2ccccc2-3)cc1OC [NSC682769] | -0.10% | – | –
41 | NC1N=C(c2ccc(Cl)cc2)C2=C(N1)c1ccccc1CC2 (stereo not drawn) [NSC682864] | -37.11% | – | –
42 | COc1ccc2cc(CN3CCC(C4CCN(Cc5ccc6cc(OC)ccc6c5)CC4)CC3)ccc2c1.Cl [NSC683792] | -73.55% | – | –
43 | O=C1Cc2c(-c3ccccc3)cc(-c3cccc(Cl)c3)nc2-c2ccccc2N1 [NSC684480] | -22.58% | – | –
44 | CCOC(=O)NC(Nc1ccc(F)cc1)(C(=O)OCC)C(F)(F)F (stereo not drawn) [NSC684845] | -7.56% | – | –

Row | SMILES | MEAN CpLDH INHIBITION (%) [1] | IC50 (HCT-8 cells) | other results
45 | COC(=O)C1=C(C(=O)OC)SC2(S1)C(C(=O)OC)=C(C(=O)OC)Sc1c2ssc1=O [NSC686349] | 31.74% | 283 µM | –
46 | CC(C)[Si]1(C(C)C)OCC2OC(n3cnc4c(N)ncnc43)C(N)C2O[Si](C(C)C)(C(C)C)O1 (stereo not drawn) [NSC687330] | -17.98% | – | –
47 | COc1ccc(/C=C2\CCCc3ccccc3C2=O)cc1 [NSC687667] | -11.60% | – | –
48 | COc1cc(OC)c2c(C)cc(=O)oc2c1 [NSC688795] | -40.28% | – | –
49 | CCCCCC(/C=C/[C@@H]1CC(=O)C[C@H]1O[Si](C)(C)C(C)(C)C)OCOCCOC (stereo partly drawn) [NSC689228] | -5.60% | – | –
50 | O=C(OCC12CC3CC(CC(C3)C1)C2)c1ccc(NCc2cc(O)ccc2O)cc1 [NSC689857] | -0.01% | – | –
51 | COc1ccc2nc3cc([N+](=O)[O-])ccc3c(NNc3ccccc3)c2c1 [NSC689872] | -7.48% | – | –
52 | O=[N+]([O-])c1cccc2nc3ccccc3c(NCCCNc3c4ccccc4nc4cccc([N+](=O)[O-])c34)c12 [NSC690634] | -61.23% | – | –
53 | CCOC(=O)c1ccc(-c2cc(C)no2)[nH]1 [NSC693053] | -6.53% | – | –
54 | CCCCCCCCCCCCCCCC[N+](C)(C)Cc1ccc(F)cc1.[Cl-] [NSC693172] | -0.60% | – | –
55 | C/C(=N\Nc1nc2ccccc2s1)c1ccncn1 [NSC693632] | 0.06% | – | –
56 | CON(C)C(=O)C1CCCO1 (stereo not drawn) [NSC695218] | -28.71% | – | –
57 | CN(C)CC1CCC/C(=C\c2ccc(OC(=O)/C=C/c3ccccc3)cc2)C1=O.Cl (stereo not drawn) [NSC697443] | -57.12% | – | –
58 | CC(=O)NC1C(OCc2ccccc2)OC(CO)C(O)C1OC(C)C(=O)NC(C(=O)NC(CCC(=O)NCCCCNc1c2ccccc2nc2cccc([N+](=O)[O-])c12)C(N)=O)C(C)C (stereo not drawn) [NSC697468] | -5.22% | – | –
59 | CC1=C(N2CC2)C(=O)C(CO)=C(N2CC2)C1=O [NSC697726] | -69.94% | – | –
60 | Cc1ccc(S(=O)(=O)c2ccc([N+](=O)[O-])o2)cc1 [NSC697923] | – | – | MEAN CpLDH INHIBITION (%) ([1]; 20 μM compound, 10 mM pyruvate, 1 mM NADH, values below 0 = augmenters): -17.27%
61 | Cc1nnc(-n2c(O)cc(=O)n(-c3ccccc3)c2=S)nc1/C=C/c1ccc(N(C)C)cc1 [NSC698031] | -6.31% | – | –
62 | CCCCn1c2c(n(CCCC)c1=S)-c1c(n(CCCC)c(=S)n1CCCC)SSSS2 [NSC700582] | -83.75% | – | –
63 | Cc1ccc(N=N/C(=N\NC(=O)c2ccc(C)cc2)c2ccc(N(CCC#N)CCC#N)cc2C)cc1 [NSC703550] | -165.27% | – | –
64 | CC(C)(C)N(Cc1ccc2c(c1)OCO2)C(=O)/C=C\[S+]([O-])c1ccccc1 (stereo not drawn) [NSC705330] | -49.87% | – | –
